Test results as given in ChEMBL document CHEMBL4138108, “Novel amidino substituted benzimidazole and benzothiazole benzo[b]thieno-2-carboxamides exert strong antiproliferative and DNA binding properties” (Eur J Med Chem, 2017).
Active and inactive are the calls of the source. No cut-off for these calls is given here.

Columns and labels:
[1] = test system: Calf thymus DNA; experiment: Binding affinity to calf thymus duplex DNA assessed as hypochromic effect up to drug to DNA ratio of 1 by UV-visible spectroscopic method; format: nucleic-acid assay; settings: Bos taurus
[2] = test system: HepG2; experiment: Antiproliferative activity against human HepG2 cells after 72 hrs by MTT assay; format: functional, cell-based; settings: HepG2, 72 h
[3] = test system: Calf thymus DNA; experiment: Binding affinity to calf thymus duplex DNA assessed as change in melting temperature at drug to DNA ratio of 0.5 measured for every mins by spectrophotometric analysis; format: nucleic-acid assay; settings: Bos taurus
[4] = target: T1, DNA topoisomerase 1 (Homo sapiens) (UniProt P11387); experiment: Inhibition of human topoisomerase-1 assessed as increase in accumulation of supercoiled pUC19 DNA at 1 to 50 uM by ethidium bromide staining based agarose gel electrophoresis
T1 sequence (whole entry): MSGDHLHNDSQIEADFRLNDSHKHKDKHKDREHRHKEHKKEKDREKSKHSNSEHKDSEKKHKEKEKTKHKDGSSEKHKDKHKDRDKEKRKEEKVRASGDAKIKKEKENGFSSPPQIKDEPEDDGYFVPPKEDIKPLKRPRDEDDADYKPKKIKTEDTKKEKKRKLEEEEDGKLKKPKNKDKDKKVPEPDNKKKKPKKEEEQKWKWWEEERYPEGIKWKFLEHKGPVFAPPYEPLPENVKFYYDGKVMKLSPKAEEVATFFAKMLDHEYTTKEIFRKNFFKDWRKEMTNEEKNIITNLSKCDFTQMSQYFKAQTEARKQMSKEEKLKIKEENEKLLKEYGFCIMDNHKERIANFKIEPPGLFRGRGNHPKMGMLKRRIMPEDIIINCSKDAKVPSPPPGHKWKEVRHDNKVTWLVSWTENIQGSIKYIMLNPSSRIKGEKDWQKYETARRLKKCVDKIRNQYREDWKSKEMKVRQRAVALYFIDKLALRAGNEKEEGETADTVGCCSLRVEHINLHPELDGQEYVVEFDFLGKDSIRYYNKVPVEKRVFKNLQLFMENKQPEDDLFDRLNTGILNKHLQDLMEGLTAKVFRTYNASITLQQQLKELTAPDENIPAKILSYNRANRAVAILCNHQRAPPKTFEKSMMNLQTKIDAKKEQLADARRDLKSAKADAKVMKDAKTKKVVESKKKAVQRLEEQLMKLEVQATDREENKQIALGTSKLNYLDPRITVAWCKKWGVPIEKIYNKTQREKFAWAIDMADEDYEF

[5] = Binding affinity to AT-rich site of 3'-end radiolabelled 265 bp pBS DNA at 0.01 to 10 uM after 15 mins by DNase I footprinting assay
[6] = test system: Calf thymus DNA; experiment: Binding affinity to calf thymus duplex DNA assessed as bathochromic shift at drug to DNA ratio of 1 to 8 by UV-visible spectroscopic method; format: nucleic-acid assay; settings: Bos taurus
[7] = test system: Calf thymus DNA; experiment: Binding affinity to calf thymus duplex DNA assessed as hyperchromic effect at drug to DNA ratio of 1 to 8 by UV-visible spectroscopic method; format: nucleic-acid assay; settings: Bos taurus
[8] = test system: SW-620; experiment: Antiproliferative activity against human SW620 cells after 72 hrs by MTT assay; format: functional, cell-based; settings: SW-620, 72 h
[9] = test system: HeLa; experiment: Antiproliferative activity against human HeLa cells after 72 hrs by MTT assay; format: functional, cell-based
[10] = target: T1, DNA topoisomerase 1 (Homo sapiens); experiment: Poison activity at human topoisomerase-1 assessed as increase in relaxation of supercoiled pUC19 DNA at 1 to 50 uM by ethidium bromide staining based agarose gel electrophoresis
[11] = Drug uptake in nucleus of human 786-O cells at 10 uM after 4 hrs by propidium iodide staining-based fluorescence microscopic analysis; format: ADME, subcellular; settings: 786-0, 4 h
[12] = test system: Calf thymus DNA; experiment: Binding affinity to calf thymus duplex DNA assessed as change in melting temperature at drug to DNA ratio of 0.25 measured for every mins by spectrophotometric analysis; format: nucleic-acid assay; settings: Bos taurus
[13] = test system: CFPAC-1; experiment: Antiproliferative activity against human CFPAC-1 cells after 72 hrs by MTT assay; format: functional, cell-based; settings: CFPAC-1, 72 h
[14] = test system: WI-38; experiment: Cytotoxicity against human WI38 cells after 72 hrs by MTT assay; format: cell-based; settings: WI-38, 72 h
[15] = target: T1, DNA topoisomerase 1 (Homo sapiens); experiment: Inhibition of human topoisomerase-1 assessed as increase in accumulation of supercoiled pUC19 DNA at 1 to 50 uM in absence of ethidium bromide staining by agarose gel electrophoresis
[16] = test system: Calf thymus DNA; experiment: Binding affinity to calf thymus duplex DNA assessed as change in melting temperature at drug to DNA ratio of 1 measured for every mins by spectrophotometric analysis; format: nucleic-acid assay; settings: Bos taurus
[17] = test system: Calf thymus DNA; experiment: Binding affinity to calf thymus duplex DNA assessed as hyperchromic effect up to drug to DNA ratio of 8 by UV-visible spectroscopic method; format: nucleic-acid assay; settings: Bos taurus
[18] = test system: Calf thymus DNA; experiment: Binding affinity to calf thymus duplex DNA by CD spectrum analysis; format: nucleic-acid assay; settings: Bos taurus
[19] = test system: Calf thymus DNA; experiment: Binding affinity to calf thymus duplex DNA assessed as hypochromic effect up to drug to DNA ratio of 8 by UV-visible spectroscopic method; format: nucleic-acid assay; settings: Bos taurus
[20] = test system: Calf thymus DNA; experiment: Binding affinity to calf thymus duplex DNA assessed as bathochromic shift up to drug to DNA ratio of 8 by UV-visible spectroscopic method; format: nucleic-acid assay; settings: Bos taurus
[21] = target: T1, DNA topoisomerase 1 (Homo sapiens); experiment: Poison activity at human topoisomerase-1 assessed as increase in relaxation of supercoiled pUC19 DNA at 50 uM by ethidium bromide staining based agarose gel electrophoresis

Structure (SMILES)	Activity [1]	IC50 [2] [µM]	ΔTm [3] [°C]	inhibition [4]	Activity [6]	Activity [7]	IC50 [8] [µM]	IC50 [9] [µM]	Activity [10]	Drug uptake [11]	IC50 [13] [µM]	IC50 [14] [µM]	inhibition [15]	ΔTm [16] [°C]	other results
Cl.Cl.O=C(Nc1nc2ccc(C3=NCCN3)cc2[nH]1)c1sc2cc(C3=NCCN3)ccc2c1Cl	Active	> 100	16.6	Active	Active	Active	> 100	> 100	inactive	Active	> 100	56.3	Active	–	Activity [5]: Active; ΔTm [12]: 14.6 °C
O=C(Nc1nc2ccc(C3=NCCN3)cc2s1)c1sc2cc(C3=NCCN3)ccc2c1Cl	–	95.2	1	–	–	–	82	49.1	–	–	61.3	86.5	–	1.5	–
O=C(Nc1nc2ccc([N+](=O)[O-])cc2[nH]1)c1sc2cc(C3=NCCN3)ccc2c1Cl	Active	2.23	2.4	Active	–	–	6.18	2.61	inactive	–	6.93	4.06	Active	2.4	–
O=C(Nc1nc2ccc(C3=NCCN3)cc2s1)c1sc2ccccc2c1Cl	–	4.51	-0.2	–	–	–	4.44	4.09	–	–	4.18	5.06	–	-1.7	–
O=C(Nc1nc2ccccc2s1)c1sc2cc(C3=NCCN3)ccc2c1Cl	–	14.2	–	inactive	–	–	7.05	1.16	inactive	–	5.04	4.24	–	–	Activity [17]: inactive; Activity [18]: Dose-dependent effect; Activity [19]: Active; Activity [20]: inactive
Cl.O=C(Nc1nc2ccccc2[nH]1)c1sc2cc(C3=NCCN3)ccc2c1Cl	Active	2.47	3.7	Active	Active	Active	5.49	2.31	inactive	Active	4.84	2.97	Active	6.3	–
O=C(Nc1nc2ccc(C3=NCCN3)cc2s1)c1sc2cc([N+](=O)[O-])ccc2c1Cl	–	6.43	-0.8	–	–	–	69.1	5.58	–	–	6.81	> 100	–	0.8	–
Cl.O=C(Nc1nc2ccc(C3=NCCN3)cc2[nH]1)c1sc2ccccc2c1Cl	Active	5.41	1.9	–	Active	Active	10.3	3.89	–	Active	20.7	9.94	–	3.9	Activity [21]: inactive; Activity [18]: Dose-dependent effect
